Key:
[1] = target: smooth muscle angiotensin II receptor; assay: Assay A: Angiotensin II Binding Activity (125I-AII displacement, rat uterine membrane preparation); conditions: 50% displacement of specifically bound 125I-AII, rat uterine membranes, 25° C., 60 min
Protocol: Compounds of the invention were tested for ability to bind to the smooth muscle angiotensin II receptor using a rat uterine membrane preparation. […] Other chemicals were obtained from Sigma Chemical Co. This assay was carried out according to the method of Douglas et al [Endocrinology, 106, 120-124 (1980)]. Rat uterine membranes were prepared from fresh tissue. All procedures were carried out at 4° C. Uteri were stripped of fat and homogenized in phosphate-buffered saline at pH 7.4 containing 5 mM EDTA. The homogenate was centrifuged at 1500×g for 20 min., and the supernatant was recentrifuged at 100,000×g for 60 min. The pellet was resuspended in buffer consisting of 2 mM EDTA and 50 mM Tris-HCl (pH 7.5) to a final protein concentration of 4 mg/ml. […] The reaction was initiated by the addition of membrane protein and the mixture was incubated at 25° C. for 60 min. The incubation was terminated with ice-cold 50 mM Tris-HCl (pH 7.5) and the mixture was filtered to separate membrane-bound labelled peptide from the free ligand. The incubation tube and filter were washed with ice-cold buffer. Filters were assayed for radioactivity in a Micromedic gamma counter. Nonspecific binding was defined as binding in the presence of 10 μM of unlabelled AII. Specific binding was calculated as total binding minus nonspecific binding.
Binding data were analyzed by a nonlinear least-squares curve fitting program.

rabbit aortic rings = assay: Assay B: In Vitro Vascular Smooth Muscle Response for AII; format: cell-based; parameters: key: NC = Non-competitive Antagonist; conditions: AII contraction
Protocol: The compounds of the invention were tested for antagonist activity in rabbit aortic rings. Male New Zealand white rabbits (2-2.5 kg) were sacrificed using an overdose of pentobarbital and exsanguinated via the carotid arteries. The thoracic aorta was removed, cleaned of adherent fat and connective tissue and then cut into 3-mm ring segments. The endothelium was removed from the rings by gently sliding a rolled-up piece of filter paper into the vessel lumen. The rings were then mounted in a water-jacketed tissue bath, maintained at 37° C., between moveable and fixed ends of a stainless steel wire with the moveable end attached to an FT03 Grass transducer coupled to a Model 7D Grass Polygraph for recording isometric force responses. The bath was filled with 20 ml of oxygenated (95% oxygen/5% carbon dioxide) Krebs solution of the following composition (mM): […], 1.2 NaH2P04, 1.2 MgS04, 2.5 CaCl2, and 11.4 glucose. The preparations were equilibrated for one hour before approximately one gram of passive tension was placed on the rings. Angiotensin II concentration-response curves were then recorded (3×10^−10 to 1×10^−5 M). […] The effectiveness of the test compound was expressed in terms of pA2 values and were calculated according to H. O. Schild [Br. J. Pharmacol. Chemother., 2,189-206 (1947)]. […] Each test antagonist was evaluated in aorta rings from two rabbits.

pressor response to AII = assay: Assay C: In Vivo Intragastric Pressor Assay Response for AII Antagonists; conditions: rat, 3 mg/kg intragastric (i.g.); for Assay C Inhibition (%): inhibition of pressor response to 30 ng/kg AII bolus; for Assay C Duration: duration of inhibition of AII pressor response, measured up to 180 min
Protocol: Male Sprague-Dawley rats weighing 225-300 grams were anesthetized with methohexital (30 mg/kg, i.p.) and catheters were implanted into the femoral artery and vein. The catheters were tunneled subcutaneously to exit dorsally, posterior to the head and between the scapulae. The catheters were filled with heparin (1000 units/ml of saline). The rats were returned to their cage and allowed regular rat chow and water ad libitum. After full recovery from surgery (3-4 days), rats were placed in Lucite holders and the arterial line was connected to a pressure transducer. Arterial pressure was recorded on a Gould polygraph (mmHg). Angiotensin II was administered as a 30 ng/kg bolus via the venous catheter delivered in a 50 μl volume with a 0.2 ml saline flush. The pressor response in mm Hg was measured by the difference from pre-injection arterial pressure to the maximum pressure achieved. The AII injection was repeated every 10 minutes until three consecutive injections yielded responses within 4 mmHg of each other. These three responses were then averaged and represented the control response to AII. The test compound was suspended in 0.5% methylcellulose in water and was administered by gavage. The volume administered was 2 ml/kg body weight. The standard dose was 3 mg/kg. Angiotensin II bolus injections were given at 30, 45, 60, 75, 120, 150, and 180 minutes after gavage. The pressor response to AII was measured at each time point. The rats were then returned to their cage for future testing. A minimum of 3 days was allowed between tests. Percent inhibition was calculated for each time point following gavage by the following formula: [(Control Response—Response at time point)/Control Response] ×100.

SMILES	melting point	IC50 [1] [nM]	Assay B pA2: type of antagonism (rabbit aortic rings)	Assay C Inhibition (%) (pressor response to AII)	Assay C Duration (pressor response to AII) [min]
CCCCc1cn(-c2ccccc2CC)c(=O)n1Cc1ccc(-c2ccccc2-c2nnn[nH]2)cc1 [Example 1, 1-(2-ethylphenyl)-4-butyl-1,3-dihydro-3-[2′-(1H-tetrazol-5-yl)[1,1′-biphenyl]-4-ylmethyl]-2H-imidazol-2-one]	188 to 189 °C	14	NC	20%/—	–
CCCCc1cn(-c2c(C)cc(C(C)(C)C)cc2C)c(=O)n1Cc1ccc(-c2ccccc2-c2nnn[nH]2)cc1 [Example 9, 1-(2,6-dimethyl-4-tertbutylphenyl) -4-butyl-1,3-dihydro-3-[2′-(1H-tetrazol-5-yl)[1,1′-biphenyl]-4-ylmethyl]-2H -imidazol-2-one]	134 to 135 °C	270	–	–	–
CCCCc1cn(-c2c(C(C)C)cccc2C(C)C)c(=O)n1Cc1ccc(-c2ccccc2-c2nnn[nH]2)cc1 [Example 7, 1-(2,6-diisopropylphenyl)-4-butyl-1,3-dihydro-3-[2′-(1H-tetrazol-5-yl)[1,1′-biphenyl]-4-ylmethyl]-2H -imidazol-2-one]	202 to 203 °C (dec.)	190	–	–	–
CCCCc1cn(-c2c(C)cccc2Cl)c(=O)n1Cc1ccc(-c2ccccc2-c2nnn[nH]2)cc1 [Example 4, 1-(2-chloro-6-methylphenyl) -4-butyl-1,3-dihydro-3-[2′-(1H-tetrazol-5-yl) [1,1′-biphenyl]-4-ylmethyl]-2H -imidazol-2-one]	163 to 164 °C	13	–	35%	> 180
CCCCc1cn(-c2c(OC)cccc2OC)c(=O)n1Cc1ccc(-c2ccccc2-c2nnn[nH]2)cc1 [Example 3, 1-(2,6-dimethoxyphenyl)-4-butyl-1,3-dihydro-3-[2′-(1H -tetrazol-5-yl)[1,1′-biphenyl]-4-ylmethyl]-2H-imidazol-2-one]	189 to 191 °C (dec.)	9.8	–	25%	> 180
CCCCc1cn(-c2c(CC)cccc2CC)c(=O)n1Cc1ccc(-c2ccccc2-c2nnn[nH]2)cc1 [Example 6, 1-(2,6-diethylphenyl) -4-butyl-1,3-dihydro-3-[2′-(1H -tetrazol-5-yl) [1,1′-biphenyl]-4-ylmethyl]-2H-imidazol-2-one]	198 to 200 °C (dec.)	33	–	<20%	–
CCCCc1cn(-c2c(C)cccc2C)c(=O)n1Cc1ccc(-c2ccccc2-c2nnn[nH]2)cc1 [Example 5, 1-(2,6-dimethylphenyl)-4-butyl-1,3-dihydro-3-[2′-(1H-tetrazol-5-yl)[1,1′-biphenyl]-4-ylmethyl]-2H -imidazol-2-one]	177 to 178 °C (dec.)	6.3	–	40%	> 180
CCCCc1cn(-c2ccccc2C(C)C)c(=O)n1Cc1ccc(-c2ccccc2-c2nnn[nH]2)cc1 [Example 2, 1-(2-isopropylphenyl)-4-butyl-1,3-dihydro-3-[2′-(1H -tetrazol-5-yl)[1,1′-biphenyl]-4-ylmethyl]-2H-imidazol-2-one]	167 to 168 °C	97	NC	70%	> 180
CCCCc1cn(-c2c(C)cc(C)cc2C)c(=O)n1Cc1ccc(-c2ccccc2-c2nnn[nH]2)cc1 [Example 8, 1-(2,4,6-trimethylphenyl)-4-butyl-1,3-dihydro-3-[2′-(1H-tetrazol-5-yl)[1,1′-biphenyl]-4-ylmethyl]-2H -imidazol-2-one]	187 to 188 °C (dec.)	30	–	50%	> 180
